Laboratory results reported in EP0301861A1, “Cell proliferation inhibitors” (Takeda Chemical Industries, Ltd., priority 1987, dated 1989).
≈ marks a conversion by molar mass, not a printed value.

Tests used:
[1] = test system: human umbilical venous endothelial cells; experiment: Inhibition of proliferation of human umbilical venous endothelial cells (MTT); format: cell-based; settings: Endothelial cell, 72 h, rFGF 2 ng/ml, 3 days of incubation, OD₅₉₀, read-out: IC₅₀
Description: Experiment 3 [Evaluation of inhibition of proliferation of human umbilical venous endothelial cells]
The human vascular endothelial cells were obtained by subculture of the cells, which had been obtained from human umbilical vein by perfusion with tripsin solution, in the culture medium which had been prepared by addition of 2.5% bovine fetal serum and 2.0 ng/ml of human recombinant fibroblast growth factor (abbreviated as rFGF hereinafter; prepared in Biotechnology Institute of our company) to GIT medium (Daigo Eiyou Kagaku).
A hundred µl of the suspension of 2 x 10³ human vascular endothelial cells was introduced to a 96-well culture plate (Nunc, 1-67008) and incubated in a gas-controlled thermostat. On the next day rFGF and 100 µl of a medium containing different concentrations of the test substance were added, so that the final concentration of rFGF might be 2 ng/ml. The test substance was dissolved in dimethylsufoxide (DMSO hereinafter) solution, and the resultant solution was diluted so that the final DMSO concentration might be 0.25% or less. After 3 days of incubation, the culture medium containing the test substance was aspirated off, 100 µl of 1 mg/ml MTT solution (3-(4,5-dimethyl-2-thiazolyl)-2,5-diphenyl-2H-tetrazolium bromide dissolved in the culture medium) was added, and the mixture was kept warm for 4 hours. Then 100 µl of 10% SDS solution (aqueous solution of sodium dodecylsulfate) was added and kept warm for 5 - 6 hours, so that the cells and MTT pigment were solubilized, and the OD₅₉₀ value was determined by spectrophotometer. The OD value of the control sample containing no test substance was taken as 100%, and the endothelial cell growth-inhibitory activity of the test substance was compared on the basis of the IC₅₀ value, the concentration of a compound at which 50% OD value is observed.

[2] = target: T1, 5-lipoxygenase from guinea pig polymorphonuclear leukocytes (Cavia porcellus, UniProt A0A286X958); experiment: Inhibition of 5-lipoxygenase; format: biochemical; settings: 10⁻⁵ M; 25µM [1-¹⁴C]arachidonic acid as substrate, 25°C
T1 construct: from guinea pig peritoneal macrophage; from tissue
T1 sequence (A0A286X958 1-674): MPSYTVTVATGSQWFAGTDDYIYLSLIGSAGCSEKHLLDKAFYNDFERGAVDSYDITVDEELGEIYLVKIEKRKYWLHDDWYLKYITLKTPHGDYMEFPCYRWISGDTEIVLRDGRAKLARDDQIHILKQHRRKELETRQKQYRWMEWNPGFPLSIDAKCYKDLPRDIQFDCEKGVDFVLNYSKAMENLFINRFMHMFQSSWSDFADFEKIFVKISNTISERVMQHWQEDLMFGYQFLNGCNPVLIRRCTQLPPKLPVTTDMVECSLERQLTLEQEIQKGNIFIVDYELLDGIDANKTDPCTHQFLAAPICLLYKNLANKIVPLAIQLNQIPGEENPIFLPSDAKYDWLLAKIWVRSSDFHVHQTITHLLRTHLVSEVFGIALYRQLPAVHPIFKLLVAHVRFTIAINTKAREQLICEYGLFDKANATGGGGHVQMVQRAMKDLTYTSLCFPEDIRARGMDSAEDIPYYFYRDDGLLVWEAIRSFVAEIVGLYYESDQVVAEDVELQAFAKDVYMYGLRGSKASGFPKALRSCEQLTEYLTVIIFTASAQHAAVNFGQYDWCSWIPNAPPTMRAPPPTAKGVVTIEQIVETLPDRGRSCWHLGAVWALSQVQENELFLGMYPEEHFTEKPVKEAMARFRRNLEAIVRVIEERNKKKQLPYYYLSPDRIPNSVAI
Description: According to the routine method these ingredients were mixed and compressed by a tableting machine. Experiment 1 [Inhibition (10⁻⁵ M) of 5-lipoxygenase from guinea pig polymorphonuclear leukocytes]
5-Lipoxygenase used was the enzyme preparation prepared from guinea pig […]. For determination of the activity of lypoxygenase 25µM [1-¹⁴C]arachidonic acid (5 x 10⁴ cpm) as the substrate, 50 mM phosphate buffer solution (pH 7.4), 2 mM CaCl₂, 2 mM ATP, and a reaction mixture containing the enzyme (200µl) were used. After preincubation at 25°C for 2 minutes, [1-¹⁴C]arachidonic acid (5 x 10⁴ cpm) was added, and allowed to react at 25°C for 3 minutes; the resultant mixture was made acidic, and arachidonic acid and its metabolites were extracted with ether. Radioactivity of the ether layer was determined by silica gel thin layer chromatography using a mixture of petroleum ether:ethylether:acetic acid (15:85:0.1) as the eluant and the elution was performed at -10°C. After elution, the thin layer plate was subjected to autoradiography, the radioactive fractions were scraped out, and the radioactivity of the product was determined by counting. The agent was added two minutes before the beginning of the reaction.

[3] = test system: IL-2-dependent cells (NKC-3); experiment: Inhibition of growth of IL-2-dependent cells (NKC-3) (MTT); format: cell-based; settings: NKC-3 cells with IL-2, 37°C for 20 hours, absorbance at 590 nm, read-out: IC₅₀
Description: Experiment 4 [Evaluation of inhibition of growth of IL-2-dependent cells (NKC-3)]
To each well of a 96-well microplate, 50 µl of NKC-3 cells (4 x 10⁵ cells/well), 20 µl of IL-2 solution (0.067 U/ml), and 40 µl of the test substance (DMSO solution) were added, which was incubated at 37°C for 20 hours (culture medium: RPMI1640-20%ECS). To each well 20 µl of MTT solution was added,which was kept at 37°C for 4 hours. Then 100 µl of 10% SDS solution was added to each well, which was kept still at 37°C overnight so that the cells and MTT pigment were solubilized, and the absorbance at 590 nm was measured by spectrophotometer. […] Compound No. IC₅₀ (M) 5 4.1 x 10⁻⁵

| Compound | IC50 [1] [µg/mL] | Inhibitory activity (%) [2] [%] | IC50 [3] [µM] |
| --- | --- | --- | --- |
| CC1=C(C(CCCCC(=O)NO)c2cccs2)C(=O)c2ccccc2C1=O (stereo not shown) [Compound No.13] | < 0.08 |  |  |
| COc1ccc(C(CCCCCC(=O)NO)C2=C(C)C(=O)C(C)=C(C)C2=O)cc1 (stereo not shown) [Compound No.8, 7-(4-methoxyphenyl)-7-(3,5,6-trimethyl-1,4-benzoquinon-2-yl)-heptanohydroxamic acid] | 0.63 (≈ 1.58 µM) | 83.8 |  |
| CC1=C(C)C(=O)C(C(CCCCCC(=O)NO)c2ccccc2)=C(C)C1=O (stereo not shown) [Compound No.5] | 0.63 (≈ 1.71 µM) | 74.6 | 41 |
| CC1=C(C)C(=O)C(C(CCCCCCC(=O)NO)c2ccccc2)=C(C)C1=O (stereo not shown) [compound 10] | 25 (≈ 65.2 µM) |  |  |
| COC1=C(OC)C(=O)C(C(CCCCCC(=O)NO)c2ccccc2)=C(C)C1=O (stereo not shown) [compound 16] | 1.25 (≈ 3.11 µM) |  |  |
| COc1ccc(C(CCCCC(=O)NO)C2=C(C)C(=O)C(C)=C(C)C2=O)cc1 (stereo not shown) [compound 4] | 0.63 (≈ 1.63 µM) |  |  |
| CC1=C(C)C(=O)C(C(CCC(=O)NO)c2ccccc2)=C(C)C1=O (stereo not shown) [Compound No.1] | 10 (≈ 30.5 µM) |  |  |
| COC1=C(OC)C(=O)C(C(CCCC(=O)NO)c2ccccc2)=C(C)C1=O (stereo not shown) [compound 17] | 20 (≈ 53.6 µM) |  |  |
| CC1=C(C(CCCC(=O)NO)c2ccccc2)C(=O)c2ccccc2C1=O (stereo not shown) [compound 11] | 5 (≈ 13.8 µM) |  |  |
| CC1=C(C)C(=O)C(C(CCCCC(=O)NO)c2ccc(F)cc2)=C(C)C1=O (stereo not shown) [compound 3] | 1.25 (≈ 3.35 µM) |  |  |
| CC1=C(C(CCCCCC(=O)NO)c2ccc(F)cc2)C(=O)c2ccccc2C1=O (stereo not shown) [compound 14] | < 0.63 | 89.7 |  |
| CC1=C(C(CCCCCCC(=O)NO)c2ccccc2)C(=O)c2ccccc2C1=O (stereo not shown) [compound 15] | < 0.63 |  |  |
| CC1=C(C(CCCCC(=O)NO)c2ccccc2)C(=O)c2ccccc2C1=O (stereo not shown) [compound 12] | 0.08 (≈ 0.212 µM) |  |  |
| CC1=C(C)C(=O)C(C(CCCCC(=O)NO)c2ccccc2)=C(C)C1=O (stereo not shown) [compound 2] | 0.63 (≈ 1.77 µM) |  |  |
| CC1=C(C)C(=O)C(C(CCCCCC(=O)NO)c2ccc(Cl)cc2)=C(C)C1=O (stereo not shown) [compound 9] | 1.25 (≈ 3.09 µM) |  |  |
| CC1=C(C)C(=O)C(C(CCCCCC(=O)NO)c2ccc(C)cc2)=C(C)C1=O (stereo not shown) [compound 7] | 1.25 (≈ 3.26 µM) |  |  |
| CC1=C(C)C(=O)C(C(CCCCCC(=O)NO)c2ccc(F)cc2)=C(C)C1=O (stereo not shown) [Compound No.6, 7-(4-fluorophenyl)-7-(3,5,6-trimethyl-1,4-benzoquinon-2-yl)-heptanohydroxamic acid] | 1.25 (≈ 3.23 µM) | 79.3 |  |
